Test [1] deals with KP230 cells. Description: qRT-PCR of Yap1 and target genes in KP230 cells. In kind it is cell-based, mouse. The source says: (§1) YAP1 cell culture and treatments: Eisinger lab: Murine KP230 cells, a Yap1-dependent cancer cell line, were derived from a tumor from the KP mouse model (Kras^G12/D; Trp53^f/fl), as described in Eisinger-Mathason, T. S. K. et al., Proc. Natl. Acad. Sci. U.S.A 112 (2015): E3402-11, which is hereby incorporated by reference in its entirety. STS-109 UPS cells were derived from a human UPS tumor and validated by Rebecca Gladdy, MD (Sinai Health System, Toronto, Ontario, Canada). TC32 cells were a gift from Patrick Grohar, MD, PhD (Children's Hospital of Philadelphia). HT-1080, HCT-116, and HEK293T cells were purchased from ATCC. KP230, HT-1080, and HEK-293T cells were grown in DMEM with 10% FBS, 1% L-glutamine, and 1% penicillin/streptomycin (P/S). […]
YAP1-related qRT-PCR: Total RNA from cultured cells was isolated with the QIAGEN RNeasy mini kit, and cDNA was synthesized with the High-Capacity RNA-to-cDNA kit (Life Technologies). qRT-PCR analysis was performed with TaqMan “best coverage” probes on a ViiA7 instrument. […] Relative expression was calculated using the ddCt method.
For orientation: In qPCR the cycle at which signal appears reflects the starting amount.

For test [2], the system named is YAP1. Description: Western blot of phospho-YAP1 (S127) in H9 cells. In kind it is cell-based, human. The following applies: 24 hrs. On the procedure:
(§2) H9 hPSCs (WiCell) were maintained on vitronectin (Thermo Fisher)-coated plates in Essential 8 (E8) medium. The cells were routinely passaged using 0.5 mM EDTA and treated with 5 μM Y-27632 dihydrochloride (Tocris) on the first day. For testing the effects of the small molecules, H9 hPSCs were seeded at 50K cells/cm^2 on vitronectin-coated plates in E8 medium supplemented with 5 μM Y-27632 dihydrochloride (day 0). On day 1, the medium was switched to E8 medium. On day 2, the medium was switched to E8 medium supplemented with the small molecules. Following overnight incubation, the cells were collected for subsequent analysis on day 3.
YAP1-related Western blotting: The cells were lysed in RIPA buffer (Pierce) supplemented with Halt Protease inhibitor cocktail and Halt Phosphatase inhibitor cocktail. Cells were lysed in hot Tris-SDS buffer (pH 7.6) and boiled for 5 minutes at 95° C. The protein concentration of each sample was quantified using the Pierce BCA protein assay (Thermo Fisher). The proteins were resolved by SDS-PAGE and transferred to PVDF membranes using the Trans-Blot Turbo Transfer system (Bio-Rad). The membranes were blocked in 5% non-fat milk in TBS-T for up to 1 hour at room temperature and incubated with primary antibodies in 5% bovine serum albumin in TBS-T overnight at 4° C. […]
On the technique in general: In western blotting, separated proteins are transferred to a membrane and probed.

Test [3] relates to YAP1. Put plainly: YAP1 immunofluorescence in H9 cells. Format: cell-based, human. The following applies: 10 μM, 24 hours. The method, then:
as §2
The cells were fixed with 4% formaldehyde for 15 mins at room temperature. The cells were permeabilized and blocked with PBS containing 2% BSA and 0.1% Triton-X100. The cells were incubated with a primary antibody against YAP1 (sc-101199) at 1:1000 dilution in a blocking buffer overnight at 4° C. Then, a goat anti-mouse Alexa Fluor 488 conjugated secondary antibody was added for 1 hour at room temperature. […] Images were collected with Olympus FV1200 microscope and analyzed with CellProfiler. […] The cell cytoplasm was determined as the region outside nuclei but within the cell bodies. Then, an average pixel intensity of YAP in the nucleus and cytoplasm was calculated to determine YAP translocation

A further test deals with TEAD-YAP interaction. The conditions noted are these: HEK-TIYL cells, PubChem; cited from earlier work.
The subject of test [4] is TC32 human Ewing's family sarcoma cells. Description: Proliferation assay, TC32 cells. In kind it is cell-based. The conditions noted are these: 10 μM daily for 72 hours.
Excerpt: as §1, with “(P/S). STS-109 cells were cultured in DMEM with 20% FBS, 1% L-glutamine, and 1% P/S. TC32 cells were grown in RPMI with 10% FBS, 1% L-glutamine, and 1% P/S. HCT-116 cells were cultured in McCoy's 5A medium with 10% FBS and 1% P/S. All cells were confirmed to be negative for mycoplasma contamination and were maintained in an incubator at 37C with 5% CO2.” for “(P/S).”
(§3) NB4A treatment: Cells were treated with 10 μM of each inhibitor or an equivalent volume of DMSO every 24 hours for 3-8 days, and counted with a hemocytometer with trypan blue exclusion daily (KP230, HT-1080, TC32, HCT-116), or every 2 days (STS-109).

The test system of test [5] is HT-1080 fibrosarcoma cells. Description: Proliferation assay, HT-1080 cells. Format: cell-based, human. The conditions noted are these: 10 μM daily for 72 hours.
Excerpt: as §1, with “(P/S). STS-109 cells were cultured in DMEM with 20% FBS, 1% L-glutamine, and 1% P/S. TC32 cells were grown in RPMI with 10% FBS, 1% L-glutamine, and 1% P/S. HCT-116 cells were cultured in McCoy's 5A medium with 10% FBS and 1% P/S. All cells were confirmed to be negative for mycoplasma contamination and were maintained in an incubator at 37C with 5% CO2.” for “(P/S).”
as §3

Test [6] deals with KP230 cells. Put plainly: Proliferation assay, KP230 cells. In kind it is cell-based, mouse. The following applies: 10 μM daily for 72 hours.
Excerpt: YAP1 cell culture and treatments: Eisinger lab: Murine KP230 cells, a Yap1-dependent cancer cell line, were derived from a tumor from the KP mouse model (Kras^G12/D; Trp53^f/fl), as described in Eisinger-Mathason, T. S. K. et al., Proc. Natl. Acad. Sci. U.S.A 112 (2015): E3402-11, which is hereby incorporated by reference in its entirety. STS-109 UPS cells were derived from a human UPS tumor and validated by Rebecca Gladdy, MD (Sinai Health System, Toronto, Ontario, Canada). TC32 cells were a gift from Patrick Grohar, MD, PhD (Children's Hospital of Philadelphia). HT-1080, HCT-116, and HEK293T cells were purchased from ATCC. KP230, HT-1080, and HEK-293T cells were grown in DMEM with 10% FBS, 1% L-glutamine, and 1% penicillin/streptomycin (P/S). STS-109 cells were cultured in DMEM with 20% FBS, 1% L-glutamine, and 1% P/S. TC32 cells were grown in RPMI with 10% FBS, 1% L-glutamine, and 1% P/S. HCT-116 cells were cultured in McCoy's 5A medium with 10% FBS and 1% P/S. All cells were confirmed to be negative for mycoplasma contamination and were maintained in an incubator at 37C with 5% CO2. For experimental purposes, cells were cultured for up to 20 passages before being discarded, and were grown to approximately 50% confluence to circumvent the effects of high cell density on Yap1 expression and activity. All cell lines in the Eisinger laboratory were treated with 10 μM of each inhibitor or an equivalent volume of DMSO every 24 hours for 3 days, except for STS-109 cells, which were treated daily for 8 days.
as §3

The test system of a further test is mouse sarcoma cells. Put plainly: qRT-PCR of Yap1/NF-κB target genes in mouse sarcoma cells. Format: cell-based. The conditions noted are these: normalized to Hprt, Sdha, timecourse. On the procedure:
Mouse sarcoma cells were treated with 1 μM of compound for 48 h. RNA was isolated and qRT-PCR was performed for known NF-κB targets and proliferation-associated targets (i.e., Ki67, FOXM1). Target genes used to assess NF-κB inhibition specific to the cancer contexts are evaluated. For example, to test the efficacy of these compounds against NF-κB transcriptional activity in […] cells, expression of PHLDA1, IER2, and LITAF is determined. Compounds that alter expression of NF-κB target genes are assessed in proliferation studies using UPS, head and neck, prostate, and breast cancer cell lines previously associated with NF-κB dependence. IC50 studies and Western blot analyses are performed to evaluate total or phosphorylated p65 levels. Small molecules are then assessed to determine their mechanism of action. […] FIGS. 4-6 provide timecourse graphs showing the relative expression normalized to housekeeping genes.

“Also recorded” adds a separate entry of the source.

As to `c1ccc(CNc2ncnc3ccccc23)cc1` [BRD-K43796186, N-benzylquinazolin-4-amine], the “transcription of Yap1, its sarcoma target genes (Foxm1, Ccl2, Hbegf, Birc5, Rela) and Amot” value in the test on KP230 cells [1] is “did not regulate transcription”. The “YAP1 S127 phosphorylation” value in the test with YAP1 [2] is reported as “decreased YAP1 S127 phosphorylation”. In addition, in the test on YAP1 [3], the YAP1 nuclear localization entry is recorded as “increased YAP1 nuclear localization”. In the test on TEAD-YAP interaction, the “inhibitors of TEAD-YAP interaction” value is recorded as “showed activity”. Moreover, the proliferation result in test [4] was “inhibited the proliferation”; in test [5], “did not affect the proliferation”; with KP230 cells [6], “inhibited the proliferation”. In addition, in the test on mouse sarcoma cells, the Ccl2 expression result is “significantly decreased”. Moreover, the Foxm1 expression result with mouse sarcoma cells was “reduced”. The Yap1 gene expression entry in the test on mouse sarcoma cells (listed as NB4A) is “not affected; also recorded: not effected”.

The record behind these values is patent publication US20230255970A1, “COMPOSITIONS AND METHODS FOR TREATING PROLIFERATIVE DISEASES” (The Broad Institute, Inc., priority 2020, published 2023).
